The source of these data is PMC5988692, “AZ304, a novel dual BRAF inhibitor, exerts anti-tumour effects in colorectal cancer independently of BRAF genetic status” (British Journal of Cancer, 2018).

Series [1] addresses p38 (Homo sapiens, UniProt Q16539). Nature of the series: 33P-ATP filter binding kinase assay (MBP phosphorylation). It is filed as biochemical. To be noted: ATP Km. The protocol:
For RAF kinases, detailed assay information was described in ref.[18] Briefly, the kinase activity of BRAF WT, BRAF V600E, or CRAF was measured using an AlphaScreen assay (Perkin Elmer, MA) monitoring MEK1/2 phosphorylation at Ser217/221. For CDK2 and CDK4 kinases, activity was also measured by AlphaScreen, monitoring phosphorylation of biotin Rb peptide at Ser780. Similarly, MAP3K7, CSF1R and JAK2 kinase activity was measured by phosphorylation of their biotinylated substrates MKK6 kinase dead protein at Ser271/Thr275, or tyrosine phosphorylation of pEY or Tyk2 Tyr1054/1055 peptides, respectively. CSK, IGF1R, EGFR, FGFR1 and SRC kinase activity was measured using a sandwich ELISA detecting phosphorylated poly EAY peptide with a HRP conjugated phosphotyrosine antibody and TMB substrate, while p38 kinase activity was measured by monitoring phosphorylation of MBP protein with radiolabeled ^33P-ATP in a filter binding format. All assays were screened under respective ATP Km conditions and inhibitor IC50s were derived from either 5 (RAF kinases, CDK2, CDK4, MAP3K7, JAK2), 10 (CSK, IGF1R, EGFR, FGFR1, SRC) or 11 (p38, CSF1R) point compound dose response.

Series [2] relates to Caco-2 cells. Description: MTT proliferation assay. It is filed as cell-based. To be noted: Homo sapiens, Caco-2, BRAF WT, KRAS WT. The protocol: (§1) The proliferation assays in selected colorectal cancer cell lines were measured using a 3-(4,5-dimethyl thiazol-2-yl)-2,5-diphenyl tetrazolium bromide (MTT) assay. First of all, cultured cells were seeded into 96-well plates (2000–5000 cells per well). After incubation for 24 h, the cells were pretreated with DMSO or AZ304 for 1 h. […] Cells were incubated for a further 48 or 72 h. For EGF stimulating assay, cells were incubated in reduced serum medium overnight and then treated with AZ304 or AZ304 + EGF (20 ng/ml) for 72 h. Twenty microliter of MTT solution (5 mg/ml) was added to each well followed by 4 h incubation at 37 °C. The cell culture medium was removed and the cells were lysed in 200 μl dimethylsulphoxide (DMSO) and the results were measured using a microplate reader (Model 550, Bio-Rad Laboratories, Hercules, CA, USA).
For orientation: Tetrazolium assays rely on reduction of a dye to a coloured formazan, in cell work by metabolically active cells.

The subject of series [3] is DiFi cells. Description: MTT proliferation assay. It is filed as cell-based. Particulars: Homo sapiens, BRAF WT, KRAS WT. The protocol:
as §1

Series [4] has as its system HT-29 cells. Nature of the series: MTT proliferation assay. Format: cell-based. Particulars: Homo sapiens, HT-29, BRAF MT (V600E), KRAS WT. The protocol:
as §1

Series [5] deals with RKO cells. Nature of the series: MTT proliferation assay. Format: cell-based. To be noted: Homo sapiens, BRAF MT (V600E), KRAS WT. The protocol:
as §1

In series [6] the test system is Caco-2 xenografts. Nature of the series: Xenograft study (tumour growth, immunohistochemistry). Format: in vivo, athymic BALB/c nude mice. The protocol: (§2) All in vivo experiments were performed in accordance with Institutional Review Board of China Medical University guidelines. Female 4–6 weeks old athymic BALB/c nude mice were purchased from Shanghai SLAC Laboratory Animal Centre (Shanghai, China). RKO/Caco-2 cells (1 × 10^7) in 200 μl PBS were injected subcutaneously into the right scapular region of mice. […] Tumours were measured with a caliper every 2 days, so did body weights. Tumour volume was calculated using the formula V = 1/2 (width^2 × length). Mice were terminated by CO2 inhalation when the tumour diameters reached 1.5 cm, according to the protocol filed with the Guidance of Institutional Animal Care and Use Committee of China Medical University.
(§3) Tumours were formalin-fixed, paraffin-embedded and prepared as described in our previous study for staining with haematoxylin and eosin.[19] […] The staining was evaluated by scanning the entire tissue specimen under low magnification (×10) and confirmed under high magnification (×20 and ×40). The protein expression was visualised and classified based on the percentage of positive cells and the intensity of staining. From each section, five visual fields were randomly selected. The degree of protein expression was based on the percentage of positive cells and the intensity of staining. Staining intensity was scored as 0 (no staining), 1 (low staining), 2 (intermediate staining), and 3 (high staining). For the staining area, ≤5%, 5–25%, 26–50, 51–75% >75% were recorded as 0, 1, 2, 3 and 4 points, respectively. Histological score = staining intensity × staining area. A score 0 was classified as negative (−), 1–4 points as weakly positive (+), 6–12 points as a strong positive (++). Final scores were assigned by two independent pathologists.
(§4) Student’s t-tests were used for statistical analyses. Data are plotted as mean ± SD. […] Tumours were harvested 4 h after dosing on day 10

For series [7], the system named is RKO xenografts. The series is described as above. Format: in vivo, athymic BALB/c nude mice. Here is the method: as §2, §3, §4
Series [8] is described as follows: Xenograft study, animal health and body weight. It is filed as in vivo. Particulars: RKO and Caco-2 xenograft mice, 10 days treatment. The protocol: as §2
Supplementary Figure 2 Weights of xenografts from RKO and Caco-2 cells was measured every 2 days.

The mark [9] stands for this setting: 48 h, read-out: GI50 (μM) of AZ304 48 h.
Where [10] appears, read: 72 h, read-out: GI50 (μM) of AZ304 72 h.
Setting [11] is: Caco-2 xenograft tumours, day 10, 4 h after dosing, score = staining intensity × staining area.
Where [12] appears, read: RKO xenograft tumours, day 10, 4 h after dosing, score = staining intensity × staining area.

Where two headings read alike, the source gives them in different places.

The term IC50 denotes the point on the concentration scale where inhibition reaches its midpoint. Low values mean greater potency, high ones weaker potency. The term GI50 denotes the concentration at which growth is held to half of that of the control.

p38, sequence (Q16539 whole entry): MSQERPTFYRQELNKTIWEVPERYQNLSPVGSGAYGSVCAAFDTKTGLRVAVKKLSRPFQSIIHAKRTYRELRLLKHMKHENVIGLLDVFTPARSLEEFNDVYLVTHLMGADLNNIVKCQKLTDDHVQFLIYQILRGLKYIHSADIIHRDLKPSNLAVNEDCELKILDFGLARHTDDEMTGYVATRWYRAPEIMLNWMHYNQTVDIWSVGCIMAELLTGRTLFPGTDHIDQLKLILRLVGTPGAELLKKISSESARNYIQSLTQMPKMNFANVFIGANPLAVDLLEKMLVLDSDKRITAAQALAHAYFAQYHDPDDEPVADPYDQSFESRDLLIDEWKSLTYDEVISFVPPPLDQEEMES

The molecule `COc1ccc2c(Nc3cc(NC(=O)c4cccc(C(C)(C)C#N)c4)ccc3C)ncnc2c1` [AZ304] yielded a concentration for half-maximal inhibition (IC50) in series [1] of 6 nM. Besides, the GI50 is 1.76 µM in series [2] (setting [9]); 0.377 µM in series [2] (setting [10]); 4.99 µM in series [3] (setting [9]); 0.635 µM in series [3] (setting [10]); 3.9 µM in series [4] (setting [9]); 0.389 µM in series [4] (setting [10]). Moreover, the concentration for 50% growth inhibition (GI50) in series [5] (setting [9]) stood at 4.54 µM; in series [5] (setting [10]) it was 0.503 µM. Further, the Ki67 histological score in series [6] (setting [11]) was found to be 3.2 ±0.84; in series [7] (setting [12]) it was 4.8 ±1.10. Also, the p-AKT histological score is given as 6.8 ±1.10 in series [6] (setting [11]) and 4.2 ±2.28 in series [7] (setting [12]). Moreover, the p-EGFR histological score came out at 10.6 ±1.95 in series [6] (setting [11]) and 10 ±1.87 in series [7] (setting [12]). The values for the p-ERK histological score in series [6] (setting [11]) and in series [7] (setting [12]) were 4.8 ±1.10 and 3.2 ±1.10, respectively. Moreover, the tumour growth result in series [6] (Caco-2 xenograft, AZ304 10 mg/kg oral twice daily, Cetuximab 40 mg/kg i.p. twice per week, 10 days, vs vehicle) is “reduced tumour growth”; in series [7] (RKO xenograft, AZ304 10 mg/kg oral twice daily, Cetuximab 40 mg/kg i.p. twice per week, 10 days, vs vehicle), “reduced tumour growth”. Also, the “tolerability (animal health, body weight)” value in series [8] is listed as “without obvious toxicity”.
